One compound from US20250002467A1, “DESIGN, SYNTHESIS AND MECHANISMS OF ANTICANCER ACTIVITY OF NEW ACETYLATED 5-AMINOSALICYLATE-THIAZOLINONE HYBRID DERIVATIVES” (University of Sharjah, priority 2023, published 2025) can be followed below.

Holding throughout (assay type): cell-based
The subject of one assay is HCT116. Kind of assay: Cell cycle analysis by flow cytometry, HCT116. The settings on record: 1 μM, peak at 8 hours, Control 27.4%. The method, then: (§1) The effect of the HH32 and HH33 compounds on the distribution of cell cycle at different time points (2, 4, 8, 24, 48, and 72 hours) was analyzed using flow cytometry. Briefly, the cells were harvested and fixed in 70% ethanol for 24 hours at −20° C. The fixed cells were treated with RNAase […] (Sigma Aldrich, Missouri, USA) and stained with propidium iodide […] (Sigma Aldrich, Missouri, USA). The data were acquired using BD Accuri C6 flow cytometer (Becton Dickenson, San Jose, CA, USA) and analysis was done using Flow Jo software (Tree Star, Inc, Ashland, OR, USA).
(In flow cytometry, cells or beads pass a laser one at a time.)

Another assay deals with A549. Briefly: Cell cycle analysis by flow cytometry, A549. The settings on record: 1 μM, up to 72 hours, Control 8.5%. The method, then:
as §1

Assay [1] relates to CDK4 knockout HCT116 cells. Briefly: Sensitivity and cell cycle of CDK4 knockout versus wild-type HCT116. The method, then:
CRISPR-Cas9 was employed to stablish HCT116 CDK4 KO cells. Ribonucleotide protein (RNP) delivery system for CRISPR technique was utilized. All the reagents were purchased for Thermoscientific company, USA. gRNA was used to target CDK4 genes. Lipofectamine™ CRISPRMAX™ Cas9 Transfection Reagent was used to transfect the cells with the gRNA and Cas9. The genomic cleavage efficiency was assessed by immunoblotting, while a scrambled gRNA, Trueguide gRNA Negative control, was used as a negative control in all the steps to ensure the specificity of the target. […] To generate isolated clones with complete knockout, the mixed pool of cells was diluted 1 cell/[…] liquid medium and then dispersed into 96 wells plate. The individual cells were left to form clones. […]
The cytotoxic effects of HH32 and HH33 compounds were evaluated at various concentrations ranging from 0.0001 to 100 μM by sulphrhodamine-B (SRB) assay as described previously. The anti-proliferative activity was expressed as growth inhibitory concentration (IC50) values, which were calculated by the sigmoidal dose-response curve fitting method using Graph pad prism 6 software (GraphPad Software, San Diego, CA, USA).
The effect of the HH32 and HH33 compounds on the distribution of cell cycle at different time points (2, 4, 8, 24, 48, and 72 hours) was analyzed using flow cytometry. […]

The subject of the next assay is MCF7 cells. Kind of assay: Transcriptomic analysis of HH33-treated MCF7 cells. Particulars: confirmed by quantitative RT-PCR.
In a further assay the test system is A549 cells. Kind of assay: Transcriptomic analysis of HH33-treated A549 cells. The method, then:
RNA extraction was carried out followed by cDNA synthesis using SuperScript VILO cDNA Synthesis kit (Invitrogen, Waltham, MA, USA) and amplification using Ion AmpliSeq gene expression core panel primers. The prepared library was purified using Agencourt AMPure XP beads (Beckman Coulter, California, USA) and quantified using Ion Library TaqMan™ Quantitation Kit (Applied Biosystems, Waltham, MA, USA). The libraries were further diluted to […] and pooled equally with four individual samples per pool. The pooled libraries were amplified using emulsion PCR on Ion OneTouch™ 2 instrument (OT2) and the enrichment was performed on Ion OneTouch™ ES following the manufacturer's instruction. Thus, prepared template libraries were then sequenced with Ion S5 XL Semiconductor sequencer using the Ion 540™ Chip. RNA-seq data were analyzed using Ion Torrent Software Suite version 5.4 and the alignment was carried out using modifications of the Torrent Mapping Alignment Program (TMAP) optimizing it for aligning the raw sequencing reads against reference sequence derived from hgl9 (GRCh37) assembly. The specificity and sensitivity was maintained by implementing a two-stage mapping approach by employing BWA-short, BWA-long, SSAHA [31], Super-maximal Exact Matching and Smith Waterman algorithm for optimal mapping. Raw read counts of the targeted genes were performed using Samtools (Samtools view —c -F 4-L bed_file bam_file) and the number of expressed transcripts was confirmed after Fragments Per Kilobase Million (FPKM) normalisation. Differentially expressed gene (DEG) analysis was performed using a script written in R programming language (version 3.6.3) with function calls to DESeq2 package from Bioconductor library sets. Raw read counts from RNASeq were normalized using quantile normalization. All counts ranked “0” were excluded. Differentially expressed genes between the two set of cell lines [HH33-treated (n=3), and untreated (n=3)] were assessed using 2 tailed t-test. Differentially expressed genes with p-value of <0.05, adjusted p-value<0.8 and 5-fold difference were included for pathway analysis using Metascape.

[2] abbreviates: A549, H33-treated vs DMSO-treated, DNA repair pathways.
[3] abbreviates: H33-treated A549 cells/DMSO-treated A549 cells, Apoptosis.
Setting [4] is: H33-treated A549 cells/DMSO-treated A549 cells, Cell Cycle.
Setting [5] is: H33-treated A549 cells/DMSO-treated A549 cells, Transcriptional Regulation by TP53.

SMILES strings stand for the structures.

The compound `COC(=O)c1cc(NC2=NC(=O)C(=Cc3ccc(N(C)C)cc3)S2)ccc1OC(C)=O` [HH33, Methyl 2-acetoxy-5-[(5-(4-dimethylaminobenzylidene)-4 (H)-oxo-1,3-thiazol-2-yl)-amino]benzoate] displayed a G2/M phase accumulation with HCT116 of 77.4%. Besides, the “G2/M cell cycle arrest” value in the assay with A549 is 45.1%. Also, the “sensitivity and cell cycle distribution, wild-type versus CDK4 knockout cells” value in assay [1] is on record as “no difference”. Also, the “six shared genes (ATAD2, CDCA3, FAMIIIB, CDKN3, HISTIH2AH, MIS18BP1)” value in the assay on MCF7 cells is on record as “maximally downregulated”. Moreover, in the assay on A549 cells (A549, H33-treated vs DMSO-treated, DNA repair / cell cycle), the “Fold change (H_Mean/D_Mean) CLSPN” value was 0.01798. Besides, in the assay on A549 cells (A549, H33-treated vs DMSO-treated, DNA repair / cell cycle / TP53 regulation), the “Fold change (H_Mean/D_Mean) BARD1” value was 0.0451. Moreover, in the assay on A549 cells (setting [2]), the “Fold change (H_Mean/D_Mean) ACTR8” value was 0.01139, the “Fold change (H_Mean/D_Mean) CHEK2” value was determined as 0.05943 and the “Fold change (H_Mean/D_Mean) EYA3” value came out at 0.02596. Also, the “six shared genes (ATAD2, CDCA3, FAMIIIB, CDKN3, HISTIH2AH, MIS18BP1)” value with A549 cells (A549, confirmed by quantitative RT-PCR) is on record as “maximally downregulated”. Moreover, in the assay on A549 cells (A549, hypergeometric test), the apoptotic signaling pathway result is recorded as “upregulation” and the “cell cycle progression pathway” value is recorded as “down-regulation”. In the assay with A549 cells (setting [3]), the “Fold change BECN1” value was 186.7500, the “Fold change CRIP1” value was found to be 199.5714, the “Fold change TGFB1” value is on record as 100.8000 and the “Fold change TNFRSF10C” value came to 802.5000. Further, in the assay on A549 cells (setting [3]), the “Fold change YWHAH” value is 168.8804. In the assay on A549 cells (setting [4]), the “Fold change CDC14A” value came to 0.01425, the “Fold change CEP78” value is recorded as 0.01614 and the “Fold change ODF2” value is on record as 0.005902. Moreover, in the assay with A549 cells (setting [5]), the “Fold change CCNE1” value is 0.02093, the “Fold change CDK9” value is reported as 0.02262, the “Fold change COX16” value came to 0.04666 and the “Fold change CSNK2A2” value is on record as 0.05877.
